≈ marks a conversion by molar mass, not a printed value. Read-outs that look alike come from different tables or passages of the source. Starred links: 1 amine or outer side, 2 acyl side, 3 side chain; linkers in the order of their positions; H or OH if unused. Non-standard residues stand in square brackets, D forms with d. Residues, ends and D or L forms follow the SMILES beside them. Groups on a side chain read outwards from the residue. *: point of attachment. X8 = O=C(CCc1c[nH]c2ccccc12)Oc1ccc(C[C@H](N[*:1])C(=O)[*:2])cc1[N+](=O)[O-]; X2 = COC(=O)[C@@H](NC(=O)[C@@H](C)C[C@@H](C(=O)[*:2])N(C)[*:1])[C@@H](C)O; X3 = O=C(Cc1ccc(F)cc1)Oc1ccc(C[C@H](N[*:1])C(=O)[*:2])cc1[N+](=O)[O-]; Trp(1-(1,1-Me2-allyl)) = C=CC(C)(C)n1cc(C[C@H](N)C(=O)O)c2ccccc21; NMeGlu(4S-Me) = C[C@@H](C[C@@H](C(=O)[*:2])N(C)[*:1])C(=O)[*:3]; X14 = C[C@@H](C[C@@H](C(=O)[*:2])N(C)[*:1])C(=O)NCc1ccc(Cl)cc1; Tyr(3-NO2) = N[C@@H](Cc1ccc(O)c([N+](=O)[O-])c1)C(=O)O; X7 = O=C1O[C@@H](CN*)CN1c1ccc(N2CCOCC2)c(F)c1; Gly(E-crotyl) = C/C=C/C[C@H](N)C(=O)O; NMeL = CN[C@@H](CC(C)C)C(=O)O
How the values were obtained:
[1] = tested on: M. tuberculosis H37Rv; experiment: Antitubercular activity assay, broth dilution, auto-luminescent strain; format: cell-based, Mycobacterium tuberculosis
[2] = tested on: MCF-7; experiment: cells; format: cell-based; conditions: Homo sapiens, MCF7; breast adenocarcinoma cell line
[3] = tested on: HeLa; experiment: cells; format: cell-based; conditions: Homo sapiens, cervical carcinoma cell line
[4] = tested on: HepG2; experiment: cells; format: cell-based; conditions: Homo sapiens, hepatocellular carcinoma cell line
[5] = tested on: A549; experiment: Cytotoxicity assay (CCK-8); format: cell-based; conditions: Homo sapiens, lung cancer cell line
[6] = tested on: HCT116; experiment: cells; format: cell-based; conditions: Homo sapiens, HCT-116; colon cancer cell line
[7] = tested on: L02; experiment: cells; format: cell-based; conditions: normal human hepatic cell line
[8] = tested on: Huvec-12; experiment: Cytotoxicity assay (CCK-8); format: cell-based; conditions: normal human umbilical vein endothelial cell line
[9] = tested on: M. tuberculosis H37Rv; parameters: method as in Ma et al., 2017; conditions: ref Ma et al., 2017; cited from earlier work
[10] = tested on: five human cancer cell lines and two normal cell lines; conditions: MCF-7, A549, HCT116, L02
[11] = tested on: five human cancer cell lines and two normal cell lines; experiment: cells
[12] = Mycobacterium tuberculosis, H37RV, Day 3rd, read-out: MICs against H37Rv, Day 3rd
[13] = Mycobacterium tuberculosis, H37RV, Day 7th, read-out: MICs against H37Rv, Day 7th
[14] = Mycobacterium tuberculosis, H37RV, Day 14th, read-out: MICs against H37Rv, Day 14th

C=CC(C)(C)n1cc(C[C@@H]2NC(=O)[C@H](C/C=C/C)NC(=O)[C@H](CC(C)C)NC(=O)[C@H](C[C@H](C)C(=O)O)N(C)C(=O)[C@H](C)NC(=O)[C@H](Cc3ccc(O)c([N+](=O)[O-])c3)NC(=O)[C@H](CC(C)C)N(C)C2=O)c2ccccc21 [ilamycin F, reference compound] (cyclo(A[NMeGlu(4S-Me)]L[Gly(E-crotyl)][Trp(1-(1,1-Me2-allyl))][NMeL][Tyr(3-NO2)])) gave an MIC [1, 12] of 30.7 µM (≈ 32 µg/mL), an MIC [1, 13] of 15.4 µM (≈ 16.1 µg/mL) and an MIC [1, 14] of 1.9 µM (≈ 1.98 µg/mL). The IC50 [2] was 32.2 µM, the IC50 [3] was 31 µM and the IC50 [4] was greater than 50 µM. It also gave an IC50 [5] of 47 µM, an IC50 [6] of 44.8 µM and an IC50 [7] of 43.9 µM. For the same molecule, the IC50 [8] was 46.1 µM and the “MIC against M. tuberculosis H37Rv” value [9] was 1.2 µM (≈ 1.25 µg/mL).
For C=CC(C)(C)n1cc(C[C@@H]2NC(=O)[C@H](C/C=C/C)NC(=O)[C@H](CC(C)C)NC(=O)[C@H](C[C@H](C)C(=O)N[C@H](C(=O)OC)[C@@H](C)O)N(C)C(=O)[C@H](C)NC(=O)[C@H](Cc3ccc(O)c([N+](=O)[O-])c3)NC(=O)[C@H](CC(C)C)N(C)C2=O)c2ccccc21 [Compound 1, ilamycin NJL1] (cyclo(A[X2]L[Gly(E-crotyl)][Trp(1-(1,1-Me2-allyl))][NMeL][Tyr(3-NO2)])), the MIC ([1]; Day 14th, read-out: MICs against H37Rv, Day 14th) was 1.7 µM (≈ 1.97 µg/mL), the MIC [1, 13] was 1.7 µM (≈ 1.97 µg/mL) and the MIC [1, 14] was 1.6 to 1.7 µM (≈ 1.85 to 1.97 µg/mL). For the same molecule, the IC50 [2] was 9 µM, the IC50 [3] was 11.3 µM and the IC50 [4] was 17.7 µM. For the same molecule, the IC50 [5] was 5.7 µM, the IC50 [6] was 7.2 µM and the IC50 [7] was 6.5 µM. For the same molecule, the IC50 [8] was 10.3 µM, the “promotion of cytotoxicity compared with ilamycin F” value [10] was 3–8 fold and the IC50 ([11]; read-out: IC50 against MCF-7, A549, HCT116, and L02) was 5.7 to 9 µM. The IC50 ([11]; read-out: IC50 against five human cancer cell lines and two normal cell lines) was 5.7 to 11.3 µM.
C=CC(C)(C)n1cc(C[C@@H]2NC(=O)[C@H](C/C=C/C)NC(=O)[C@H](CC(C)C)NC(=O)[C@H](C[C@H](C)C(=O)NCc3ccc(Cl)cc3)N(C)C(=O)[C@H](C)NC(=O)[C@H](Cc3ccc(O)c([N+](=O)[O-])c3)NC(=O)[C@H](CC(C)C)N(C)C2=O)c2ccccc21 [Compound 11, ilamycin NJL11] (cyclo(A[X14]L[Gly(E-crotyl)][Trp(1-(1,1-Me2-allyl))][NMeL][Tyr(3-NO2)])) showed an MIC [1, 12] of 3.4 µM (≈ 3.96 µg/mL), an MIC [1, 13] of 3.4 µM (≈ 3.96 µg/mL) and an MIC [1, 14] of 3.4 µM (≈ 3.96 µg/mL). The IC50 [2] was greater than 50 µM, the IC50 [3] was greater than 50 µM and the IC50 [4] was greater than 50 µM. The IC50 [5] was greater than 50 µM, the IC50 [6] was greater than 50 µM and the IC50 [7] was greater than 50 µM. The IC50 [8] was greater than 50 µM.
Work on C=CC(C)(C)n1cc(C[C@@H]2NC(=O)[C@H](C/C=C/C)NC(=O)[C@H](CC(C)C)NC(=O)[C@H](C[C@H](C)C(=O)O)N(C)C(=O)[C@H](C)NC(=O)[C@H](Cc3ccc(OC(=O)CCc4c[nH]c5ccccc45)c([N+](=O)[O-])c3)NC(=O)[C@H](CC(C)C)N(C)C2=O)c2ccccc21 [Compound 16, ilamycin NJL16] (cyclo(A[NMeGlu(4S-Me)]L[Gly(E-crotyl)][Trp(1-(1,1-Me2-allyl))][NMeL][X8])) yielded an MIC [1, 12] of 26.4 µM (≈ 32 µg/mL), an MIC [1, 13] of 26.4 µM (≈ 32 µg/mL) and an MIC [1, 14] of 26.4 µM (≈ 32 µg/mL). For the same molecule, the IC50 [2] was greater than 50 µM, the IC50 [3] was greater than 50 µM and the IC50 [4] was greater than 50 µM. The IC50 [5] was greater than 50 µM, the IC50 [6] was greater than 50 µM and the IC50 [7] was greater than 50 µM. It also gave an IC50 [8] greater than 50 µM.
C=CC(C)(C)n1cc(C[C@@H]2NC(=O)[C@H](C/C=C/C)NC(=O)[C@H](CC(C)C)NC(=O)[C@H](C[C@H](C)C(=O)N[C@@H](Cc3ccccc3)C(=O)OC)N(C)C(=O)[C@H](C)NC(=O)[C@H](Cc3ccc(O)c([N+](=O)[O-])c3)NC(=O)[C@H](CC(C)C)N(C)C2=O)c2ccccc21 [Compound 7, ilamycin NJL7] (cyclo(A[NMeGlu(4S-Me)]([Phe-OMe])L[Gly(E-crotyl)][Trp(1-(1,1-Me2-allyl))][NMeL][Tyr(3-NO2)])) showed an MIC [1, 12] of 26.6 µM (≈ 32 µg/mL), an MIC [1, 13] of 13.3 µM (≈ 16 µg/mL) and an MIC [1, 14] of 6.6 µM (≈ 7.94 µg/mL). For the same molecule, the IC50 [2] was greater than 50 µM, the IC50 [3] was greater than 50 µM and the IC50 [4] was greater than 50 µM. The IC50 [5] was greater than 50 µM, the IC50 [6] was greater than 50 µM and the IC50 [7] was greater than 50 µM. For the same molecule, the IC50 [8] was greater than 50 µM.
C=CC(C)(C)n1cc(C[C@@H]2NC(=O)[C@H](C/C=C/C)NC(=O)[C@H](CC(C)C)NC(=O)[C@H](C[C@H](C)C(=O)O)N(C)C(=O)[C@H](C)NC(=O)[C@H](Cc3ccc(OC(=O)Cc4ccc(F)cc4)c([N+](=O)[O-])c3)NC(=O)[C@H](CC(C)C)N(C)C2=O)c2ccccc21 [Compound 17, ilamycin NJL17] (cyclo(A[NMeGlu(4S-Me)]L[Gly(E-crotyl)][Trp(1-(1,1-Me2-allyl))][NMeL][X3])) gave an MIC [1, 12] of 27.2 µM (≈ 32.1 µg/mL), an MIC [1, 13] of 27.2 µM (≈ 32.1 µg/mL) and an MIC [1, 14] of 27.2 µM (≈ 32.1 µg/mL). It also gave an IC50 [2] greater than 50 µM, an IC50 [3] greater than 50 µM and an IC50 [4] greater than 50 µM. For the same molecule, the IC50 [5] was greater than 50 µM, the IC50 [6] was greater than 50 µM and the IC50 [7] was greater than 50 µM. For the same molecule, the IC50 [8] was greater than 50 µM.
Molecule C=CC(C)(C)n1cc(C[C@@H]2NC(=O)[C@H](C/C=C/C)NC(=O)[C@H](CC(C)C)NC(=O)[C@H](C[C@H](C)C(=O)NC[C@H]3CN(c4ccc(N5CCOCC5)c(F)c4)C(=O)O3)N(C)C(=O)[C@H](C)NC(=O)[C@H](Cc3ccc(O)c([N+](=O)[O-])c3)NC(=O)[C@H](CC(C)C)N(C)C2=O)c2ccccc21 [Compound 14, ilamycin NJL14] (cyclo(A[NMeGlu(4S-Me)](X7)L[Gly(E-crotyl)][Trp(1-(1,1-Me2-allyl))][NMeL][Tyr(3-NO2)])) has an MIC ([1]; Mycobacterium tuberculosis, H37RV, read-out: MICs against H37Rv, Day 3rd) of 48.5 µM (≈ 64 µg/mL), an MIC ([1]; Mycobacterium tuberculosis, H37RV, read-out: MICs against H37Rv, Day 7th) of 48.5 µM (≈ 64 µg/mL) and an MIC ([1]; Mycobacterium tuberculosis, H37RV, read-out: MICs against H37Rv, Day 14th) of 48.5 µM (≈ 64 µg/mL). For the same molecule, the IC50 [2] was greater than 50 µM, the IC50 [3] was greater than 50 µM and the IC50 [4] was greater than 50 µM. For the same molecule, the IC50 [5] was greater than 50 µM, the IC50 [6] was greater than 50 µM and the IC50 [7] was greater than 50 µM. For the same molecule, the IC50 [8] was greater than 50 µM.
